Measurements published in US10590132B2, “Selective estrogen receptor down-regulators” (AstraZeneca AB, priority 2017, dated 2020).

molecular target: Estrogen Receptor (ERα) in MCF-7 cells (Homo sapiens (Human), UniProt P03372); experiment: MCF-7 ER down-regulation assay (immuno-fluorescence); format: cell-based; conditions: maximum downregulation in the assay
Sequence (P03372 whole entry): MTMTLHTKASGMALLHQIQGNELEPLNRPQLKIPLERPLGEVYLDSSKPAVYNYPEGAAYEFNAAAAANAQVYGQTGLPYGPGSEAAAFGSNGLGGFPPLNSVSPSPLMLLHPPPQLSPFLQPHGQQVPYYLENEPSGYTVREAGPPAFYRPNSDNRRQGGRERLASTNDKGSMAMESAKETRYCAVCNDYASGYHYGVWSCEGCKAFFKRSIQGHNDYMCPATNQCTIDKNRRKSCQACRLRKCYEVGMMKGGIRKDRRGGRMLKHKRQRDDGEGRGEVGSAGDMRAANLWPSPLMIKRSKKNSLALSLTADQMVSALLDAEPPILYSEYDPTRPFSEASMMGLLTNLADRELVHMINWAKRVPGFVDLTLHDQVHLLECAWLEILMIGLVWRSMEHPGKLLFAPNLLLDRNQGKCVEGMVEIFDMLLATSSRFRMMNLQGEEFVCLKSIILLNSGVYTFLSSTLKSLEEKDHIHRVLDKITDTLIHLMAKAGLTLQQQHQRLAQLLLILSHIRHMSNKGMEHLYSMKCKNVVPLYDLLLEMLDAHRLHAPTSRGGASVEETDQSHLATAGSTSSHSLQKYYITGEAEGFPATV

| Structure (SMILES) | % downregulation (in brackets) |
| --- | --- |
| COCc1ccc(OCCNCCCF)cc1[C@@H]1c2[nH]c3ccccc3c2C[C@@H](C)N1CC(F)(F)F [Example 71, 3-fluoro-N-(2-(4-(methoxymethyl)-3-((1R,3R)-3-methyl-2-(2,2,2-trifluoroethyl)-2,3,4,9-tetrahydro-1H-pyrido[3,4-b]indol-1-yl)phenoxy)ethyl)propan-1-amine] | 90% |

system: not listed separately; experiment: Human plasma protein binding (equilibrium dialysis); format: in vitro ADME; conditions: dialysis 18 hours

| Human plasma protein binding (% free) | Structure (SMILES) |
| --- | --- |
| 2.2 % free | C[C@@H]1Cc2c([nH]c3ccccc23)[C@@H](c2cccc(OCCNCCCF)n2)N1CC(F)(F)F [Example 34, 3-fluoro-N-(2-((6-((1S,3R)-3-methyl-2-(2,2,2-trifluoroethyl)-2,3,4,9-tetrahydro-1H-pyrido[3,4-b]indol-1-yl)pyridin-2-yl)oxy)ethyl)propan-1-amine] |
| 0.34 % free | Cc1c([C@@H]2c3[nH]c4ccccc4c3C[C@@H](C)N2CC(F)(F)F)ccnc1OCCNCCCF [Example 106, 3-fluoro-N-(2-((3-methyl-4-((1R,3R)-3-methyl-2-(2,2,2-trifluoroethyl)-2,3,4,9-tetrahydro-1H-pyrido[3,4-b]indol-1-yl)pyridin-2-yl)oxy)ethyl)propan-1-amine] |
| 1.4 % free | C[C@@H]1Cc2c([nH]c3ccccc23)[C@@H](c2ccnc(OCCNCCCF)c2)N1CC(F)(F)F [Example 102, 3-fluoro-N-(2-((4-((1R,3R)-3-methyl-2-(2,2,2-trifluoroethyl)-2,3,4,9-tetrahydro-1H-pyrido[3,4-b]indol-1-yl)pyridin-2-yl)oxy)ethyl)propan-1-amine] |

The next lines start with the compound.

| Structure (SMILES) | Human plasma protein binding (% free) |
| --- | --- |
| COCc1ccc(OCCNCCCF)cc1[C@@H]1c2[nH]c3ccccc3c2C[C@@H](C)N1CC(F)(F)F [Example 71, 3-fluoro-N-(2-(4-(methoxymethyl)-3-((1R,3R)-3-methyl-2-(2,2,2-trifluoroethyl)-2,3,4,9-tetrahydro-1H-pyrido[3,4-b]indol-1-yl)phenoxy)ethyl)propan-1-amine] | 0.44 % free |
| C[C@@H]1Cc2c([nH]c3c(F)cccc23)[C@@H](c2c(F)ccc(OCCNCCCF)c2F)N1CC(F)(F)CO [Example 60, 3-((1R,3R)-1-(2,6-difluoro-3-(2-((3-fluoropropyl)amino)ethoxy)phenyl)-8-fluoro-3-methyl-1,3,4,9-tetrahydro-2H-pyrido[3,4-b]indol-2-yl)-2,2-difluoropropan-1-ol] | 1.9 % free |
| C[C@@H]1Cc2c([nH]c3ccccc23)[C@@H](c2c(F)cnc(OCCNCCCF)c2Cl)N1CC(F)(F)CO [Example 111, 3-((1R,3R)-1-(3-chloro-5-fluoro-2-(2-((3-fluoropropyl)amino)ethoxy)pyridin-4-yl)-3-methyl-1,3,4,9-tetrahydro-2H-pyrido[3,4-b]indol-2-yl)-2,2-difluoropropan-1-ol] | 1.4 % free |
